Results published in patent US9340500B2, “Aromatic heterocyclic derivative having TRPV4-inhibiting activity” (SHIONOGI & CO., LTD., priority 2011, dated 2016).

Target: human TRPV4 (Homo sapiens (Human), UniProt Q9HBA0)
Assay: Test Example 3: measurement of TRPV4 inhibitory activity (Fluo-3, FDSS 3000, 4α-PDD)
Assay type: cell-based
Details: hTRPV4/CHO cells, calculated from IC50 and 4α-PDD EC50
Description: For each compound, TRPV4 inhibitory activity was measured using cells.
(1) The TRPV4 inhibitory activity was measured using CHO-K1 cells stably expressing human TRPV4 (hTRPV4/CHO cells).
(2) Frozen cells were thawed and subcultured with the medium (MEM-α, 10% FBS, […], 50 unit/mL penicillin, 50 μg/mL streptomycin, 1 mg/mL G418).
(3) The 96-well plates which hTRPV4/CHO cells were seeded at densities of 2×10^4 cells/well in the culture medium and cultured in a CO2 incubator in the presence of 5% CO2 at 37° C. for 24 h was used as assay plates.
(4) The assay plate was washed with assay buffer (Hanks, […], […], pH7.4).
(5) Fluo-3, fluorescent dye for Ca influx assay was added to each well, then the assay plate was incubated in a CO2 incubator in the presence of 5% CO2 at 37° C. for one hour (final conc.; 5 μmmol/L Fluo-3).
(6) The assay plate was washed with the assay buffer, and the buffer was remained at 30 μL/well. Then the assay plate was incubated for 10 min at 37° C.
(7) Diluted compound solution was dispensed to each well in the compound plate, and mixed with built-in Pipette and Mixer of the fluorescence analysis system FDSS 3000 (Hamamatsu Photonics).
(8) 50 μL of 4α-PDD solution (concluding 0.1% Pluronic F-127) was applied to each well of assay plate and mixed.
(9) The fluorescent intensity was measured by FDSS 3000 for 8 min from the point of time addition the compound solution, at Ex 480 nm, Em 540 nm wavelength.
TRPV4 inhibitory activity (Ki value) of a compound was evaluated according to the following procedure.
(10) In the presence of the compound, the difference between maximal and minimal of fluorescent intensity value for 8 min from just before addition of 4α-PDD solution was calculated, and it was referred as Max-Min value. Max-Min value of the Ruthenium Red at 10 μM was defined as 100% inhibitory activity, Max-Min value in the absence of the compound was defined as 0% inhibitory activity. The TRPV4 inhibitory activity of the compound was calculated by the following formula. (1−(Max-Min value of the compound−100% inhibitory activity)/(0% inhibitory activity−100% inhibitory activity))×100 (11) By the following formula, inhibitory activity was calculated at 10 points with three fold serial dilution, in the final concentration of the compound from 10 μmmol/L to 0.5 nmol/L. The IC50 value was calculated by dose-response curve. 100−[(fluorescent intensity in the presence of the compound−fluorescent intensity of back ground)/(total fluorescent intensity−fluorescent intensity of back ground)]×100 (12) In the presence of the compound, activity of 4α-PDD was measured at 9 points with three fold serial dilution from 20 μmol/L. Activity of 4α-PDD was calculated by the following formula. (Max-Min value of the each 4α-PDD concentration−0% activity)/(100% activity−0% activity))×100 (13) Effective activity was calculated in 4α-PDD the above. The EC50 value was calculated by dose-response curve. (14) The Ki value of a compound was calculated by the following formula. Ki (nmol/L)=IC50 value (nmol/L)/([A]/EC50 value (nmol/L)) [A]; Concentration of agonist (nmol/L)

human TRPV4, sequence (Q9HBA0 whole entry): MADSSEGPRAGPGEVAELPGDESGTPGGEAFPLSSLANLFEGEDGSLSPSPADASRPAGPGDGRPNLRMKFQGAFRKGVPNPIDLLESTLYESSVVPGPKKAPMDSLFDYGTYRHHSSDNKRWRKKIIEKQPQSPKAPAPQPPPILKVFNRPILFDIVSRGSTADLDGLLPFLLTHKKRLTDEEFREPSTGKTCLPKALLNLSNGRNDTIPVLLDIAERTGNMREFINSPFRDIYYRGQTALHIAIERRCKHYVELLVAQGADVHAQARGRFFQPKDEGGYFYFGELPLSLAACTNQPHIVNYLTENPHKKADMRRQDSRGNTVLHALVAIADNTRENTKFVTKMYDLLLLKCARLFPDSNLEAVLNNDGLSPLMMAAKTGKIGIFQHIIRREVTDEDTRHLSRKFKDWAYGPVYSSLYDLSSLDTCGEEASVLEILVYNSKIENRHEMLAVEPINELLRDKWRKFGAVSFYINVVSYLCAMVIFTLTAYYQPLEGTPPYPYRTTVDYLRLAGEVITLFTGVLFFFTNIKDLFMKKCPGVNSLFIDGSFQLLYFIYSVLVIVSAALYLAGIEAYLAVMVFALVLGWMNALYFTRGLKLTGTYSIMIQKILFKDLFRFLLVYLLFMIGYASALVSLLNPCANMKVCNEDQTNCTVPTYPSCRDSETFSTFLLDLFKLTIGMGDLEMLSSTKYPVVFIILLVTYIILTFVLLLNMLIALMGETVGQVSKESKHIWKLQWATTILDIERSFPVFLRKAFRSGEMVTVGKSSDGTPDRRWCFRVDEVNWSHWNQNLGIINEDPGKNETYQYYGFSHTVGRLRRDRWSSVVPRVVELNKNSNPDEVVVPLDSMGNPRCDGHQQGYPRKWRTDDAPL

Going from `Cc1c(C(=O)OCc2ccccc2)cc(C(C)(C)C)n1CCCN1CCOCC1` [Compound I-001] to `Cc1c(C(=O)Nc2cccc(C(C)C)c2)cc(-c2ccccc2)n1CCCN1CCOCC1` [Compound I-029], the Ki falls from 3.96 µM to 0.519 µM (7.6-fold).

`Cc1c(C(=O)Nc2cccc(C(F)(F)F)c2)cc(-c2ccccc2)n1CCCNc1ccccc1` [Compound I-011] and `Cc1c(C(=O)Nc2cccc(C(F)(F)F)c2)cc(-c2ccccc2)n1CCCN(C)c1ccccc1` [Compound I-012] are within 1.5-fold of each other in Ki: 1.7 µM for the first, 1.14 µM for the second.

Going from `Cc1c(C(=O)Nc2cccc(Cl)c2)cc(-c2ccccc2)n1CCCN1CCOCC1` [Compound I-013] to `Cc1c(C(=O)Nc2nc3ccccc3s2)cc(-c2ccccc2)n1CCCN1CCOCC1` [Compound I-020], the Ki rises from 0.453 µM to 0.992 µM (2.2-fold). The first binds more tightly here.

`Cc1c(C(=O)Nc2cccc(C(F)(F)F)c2)cc(-c2ccccc2)n1CCCN(C)C(=O)OC(C)(C)C` [Compound I-030] and `Cc1c(C(=O)Nc2cccc(C(F)(F)F)c2)cc(-c2ccccc2)n1CCCN(C)C(=O)C(C)C` [Compound I-051] are within 1.5-fold of each other in Ki: 0.701 µM for the first, 0.59 µM for the second.

First: Cc1c(C(=O)Nc2cccc(C(F)(F)F)c2)cc(-c2ccccc2)n1CCCN(C)CCOCc1ccccc1 [Compound I-034]
Second: COC(=O)CCCN(C)CCCn1c(-c2ccccc2)cc(C(=O)Nc2cccc(C(F)(F)F)c2)c1C [Compound I-041]
The Ki of the first is 2.7-fold higher: 2.62 µM for the first, 0.988 µM for the second. The second binds more tightly here.

`Cc1c(C(=O)Nc2cccc(C(F)(F)F)c2)cc(-c2ccccc2)n1CCCN(C)CC1CCOC1` (centres unmarked) [Compound I-036] and `Cc1c(C(=O)Nc2cccc(C(F)(F)F)c2)cc(-c2ccccc2)n1CCCN(C)CC1CCOCC1` [Compound I-040] are within 1.5-fold of each other in Ki: 1 µM for the first, 1.14 µM for the second.

`CCOC(=O)C1CC1CN(C)CCCn1c(-c2ccccc2)cc(C(=O)Nc2cccc(C(F)(F)F)c2)c1C` (centres unmarked) [Compound I-037] and `COCC(=O)N(C)CCCn1c(-c2ccccc2)cc(C(=O)Nc2cccc(C(F)(F)F)c2)c1C` [Compound I-045] are within 1.5-fold of each other in Ki: 1.8 µM for the first, 1.72 µM for the second.

Compared with `Cc1c(C(=O)Nc2cccc(C(F)(F)F)c2)cc(-c2ccccc2)n1CCCN(C)C(=O)C1CCCCC1` [Compound I-042], `Cc1c(C(=O)Nc2cccc(C(F)(F)F)c2)cc(-c2ccccc2)n1CCCN(C)C(=O)C1CCC1` [Compound I-059] is 2.4-fold lower in Ki: 1.12 µM for the first, 0.472 µM for the second.

First: Cc1c(C(=O)Nc2cccc(C(F)(F)F)c2)cc(-c2ccccc2)n1CCCN(C)C(=O)c1ccco1 [Compound I-043]
Second: Cc1c(C(=O)Nc2cccc(C(F)(F)F)c2)cc(-c2ccccc2)n1CCCN(C)C(=O)c1cccs1 [Compound I-044]
The Ki of the first is 1.6-fold higher: 1.38 µM for the first, 0.844 µM for the second.

Compared with `Cc1c(C(=O)Nc2cccc(C(F)(F)F)c2)cc(-c2ccccc2)n1CCCN(C)C(=O)Cc1cccs1` [Compound I-046], `Cc1c(C(=O)Nc2cccc(C(F)(F)F)c2)cc(-c2ccccc2)n1CCCN(C)C(=O)c1ccncc1` [Compound I-047] is 5.2-fold lower in Ki: 1.68 µM for the first, 0.32 µM for the second.

`Cc1c(C(=O)Nc2cccc(C(F)(F)F)c2)cc(-c2ccccc2)n1CCCN(C)C(=O)c1ccc2c(c1)OCO2` [Compound I-048] and `Cc1c(C(=O)Nc2cccc(C(F)(F)F)c2)cc(-c2ccccc2)n1CCCN(C)C(=O)c1ccc2occc2c1` [Compound I-058] are within 1.5-fold of each other in Ki: 1.31 µM for the first, 1.65 µM for the second.

Compared with `COCCOCC(=O)N(C)CCCn1c(-c2ccccc2)cc(C(=O)Nc2cccc(C(F)(F)F)c2)c1C` [Compound I-050], `Cc1c(C(=O)Nc2cccc(C(F)(F)F)c2)cc(-c2ccccc2)n1CCCN(C)C(=O)C1CC1` [Compound I-052] is 1.6-fold lower in Ki: 1.14 µM for the first, 0.707 µM for the second. The second binds more tightly here.

`Cc1c(C(=O)Nc2cccc(C(F)(F)F)c2)cc(-c2ccccc2)n1CCCN(C)C(=O)c1cccnc1` [Compound I-053] and `Cc1c(C(=O)Nc2cccc(C(F)(F)F)c2)cc(-c2ccccc2)n1CCCN(C)C(=O)c1ccccn1` [Compound I-054] are within 1.5-fold of each other in Ki: 0.978 µM for the first, 1.17 µM for the second.

`Cc1c(C(=O)Nc2cccc(C(F)(F)F)c2)cc(-c2ccccc2)n1CCCN(C)C(=O)c1ccc2ccccc2n1` [Compound I-055] and `Cc1c(C(=O)Nc2cccc(C(F)(F)F)c2)cc(-c2ccccc2)n1CCCN(C)C(=O)c1cnc2ccccc2n1` [Compound I-066] are within 1.5-fold of each other in Ki: 0.984 µM for the first, 0.662 µM for the second.

Going from `CC(=O)Nc1ccc(C(=O)N(C)CCCn2c(-c3ccccc3)cc(C(=O)Nc3cccc(C(F)(F)F)c3)c2C)cc1` [Compound I-056] to `Cc1c(C(=O)Nc2cccc(C(F)(F)F)c2)cc(-c2ccccc2)n1CCCN(C)C(=O)c1ccc(N(C)C)cc1` [Compound I-060], the Ki rises from 0.56 µM to 1.35 µM (2.4-fold).

First: CC(=O)N1CCC(C(=O)N(C)CCCn2c(-c3ccccc3)cc(C(=O)Nc3cccc(C(F)(F)F)c3)c2C)CC1 [Compound I-057]
Second: Cc1c(C(=O)Nc2cccc(C(F)(F)F)c2)cc(-c2ccccc2)n1CCCN(C)C(=O)C1CCOCC1 [Compound I-068]
The Ki of the first is 1.8-fold higher: 1.79 µM for the first, 1.01 µM for the second. The second binds more tightly here.

`Cc1c(C(=O)Nc2cccc(C(F)(F)F)c2)cc(-c2ccccc2)n1CCCN(C)C(=O)c1csc(-c2ccccc2)n1` [Compound I-061] and `Cc1c(C(=O)Nc2cccc(C(F)(F)F)c2)cc(-c2ccccc2)n1CCCN(C)C(=O)c1csc(-c2cccs2)n1` [Compound I-062] are within 1.5-fold of each other in Ki: 1.7 µM for the first, 1.39 µM for the second.

`Cc1c(C(=O)Nc2cccc(C(F)(F)F)c2)cc(-c2ccccc2)n1CCCN(C)C(=O)C(Cl)(Cl)Cl` [Compound I-064] and `Cc1c(C(=O)Nc2cccc(C(F)(F)F)c2)cc(-c2ccccc2)n1CCCN(C)C(=O)c1cccc(N(C)C)c1` [Compound I-069] are within 1.5-fold of each other in Ki: 0.713 µM for the first, 0.816 µM for the second.

First: COc1ccc(OC)c(CC(=O)N(C)CCCn2c(-c3ccccc3)cc(C(=O)Nc3cccc(C(F)(F)F)c3)c2C)c1 [Compound I-065]
Second: Cc1c(C(=O)Nc2cccc(C(F)(F)F)c2)cc(-c2ccccc2)n1CCCN(C)C(=O)C(=O)c1c[nH]c2ccccc12 [Compound I-067]
The Ki of the first is 2.8-fold lower: 0.85 µM for the first, 2.37 µM for the second. The first binds more tightly here.
